In US11753418B2, “Compounds for the modulation of Myc activity” (Syros Pharmaceuticals, Inc., priority 2015, dated 2023):

Assays:
c-Myc/Max/Ebox DNA = molecular target: T1, c-Myc/Max/Ebox DNA (Homo sapiens, UniProt P01106); experiment: c-Myc/Max/Ebox DNA AlphaScreen Assay; format: binding; conditions: free c-Myc 20 nM, his6-Max 5 nM, biotinylated Ebox oligo 10 nM, 2 hour incubation
T1 construct: his6 (cleaved yes)
Description: Compounds of the invention were assayed for c-Myc/Max/EBox activity as described in the following protocol. Human his6-c-Myc and his6-Max were used with biotinylated DNA containing a single Ebox sequence (biotin[…]) purchased from MWG Operon. Free c-Myc was generated from his6-c-Myc through thrombin cleavage of the his6 tag. For 384-well plate assays, 10 μL of a 2× solution of free c-Myc (20 nM final), Ni^2+ coated Acceptor Beads (25 μg/ml final), and biotinylated Ebox oligo (10 nM final) were added to 384-well plates with a Biotek EL406 liquid handler. 50 nL of compounds from stock plates were added by pin transfer using a Janus Workstation (PerkinElmer), allowing the compounds to interact with c-Myc prior to c-Myc binding with Max. In the current assay, DMSO was not allowed to exceed 2% v/v of the assay. 10 μl of 2× master mix containing streptavidin-coated donor beads (25 μg/ml final) and his6-Max (5 nM) were added. AlphaScreen measurements were performed on an Envision plate reader (PerkinElmer) utilizing the manufacturer's protocol.
Both master mixes were made in room temperature assay buffer (50 mM HEPES, 150 mM NaCl, 0.2% w/v BSA, 0.02% w/v Tween20, 40 μg/ml glycogen, 500 μM DTT, pH 8.0, wherein both DTT and glycogen were added fresh). Alpha beads were added to respective master solutions. All subsequent steps were performed in low light conditions. Solution 1: 2× solution of components with final concentrations of c-Myc Ni-coated Acceptor Beads (25 μg/ml), and biotinylated Ebox oligo (10 nM). Solution 2: 2× solution of streptavidin-coated donor beads (25 μg/ml final) and his6-Max […]. Solution 1 was added to 384-well plate (AlphaPlate-384, PerkinElmer) with Biotek EL406 liquid handler and the plates were centrifuged very briefly. 50 nL of compounds from stock plates were added by pin transfer using a Janus Workstation. Solution 2 (10 μL) was added with the liquid handler. Plates were sealed with foil to block light exposure and prevent evaporation. Plates were very briefly centrifuged followed by 2 hour incubation. AlphaScreen measurements were performed on an Envision 2104 utilizing the manufacturer's protocol. Excitation was at 680 nm for donor bead release of singlet oxygen and emission was read with a bandpass filter from 520-620 nm. Glycogen: Roche Diagnostics #10901393001. Plate 1536: Perkin Elmer, 6004350. Plate 384: Perkin Elmer, 6005350. Nickel-His Alpha Beads: 6760619R. The data from this assay are summarized in Table 3 below (Myc/Max/DNA Activity).

[1] = tested on: human small lung cancer cell line H2171; experiment: Cell Viability Assay (ATPlite); format: cell-based; conditions: NCI-H2171, 72 h, H2171 cells, incubated for three days, ATPlite readout
Description: Compounds of the invention were assayed for cell viability using the human small lung cancer cell line H2171 as described in the following protocol. Cells were counted and adjusted to 20,000 cells/mL. Using a Biotek EL406, 50 μL of cells in media were distributed into 384 well white plates from Thermo. Immediately after plating, compound in DMSO was distributed to plates. Compounds were added to plates using a 50 nL 384 well pin transfer manifold on a Janus workstation. Stocks were arrayed in 10 point dose response in DMSO stock in 384 well Greiner compound plates. After the addition of compounds, plates were incubated for three days in a 37° C. incubator. Cell viability was read out using ATPlite from Perkin Elmer. Lyophilized powder was resuspended in lysis buffer and diluted 1:2 with deionized water. 25 μL of this solution was added to each well using the Biotek liquid handler. Plates were incubated for 15 minutes at room temperature before signal was read on an Envision Plate Reader. The data from this assay are summarized in Table 3 below (H2171 activity).

T1 sequence (P01106 whole entry): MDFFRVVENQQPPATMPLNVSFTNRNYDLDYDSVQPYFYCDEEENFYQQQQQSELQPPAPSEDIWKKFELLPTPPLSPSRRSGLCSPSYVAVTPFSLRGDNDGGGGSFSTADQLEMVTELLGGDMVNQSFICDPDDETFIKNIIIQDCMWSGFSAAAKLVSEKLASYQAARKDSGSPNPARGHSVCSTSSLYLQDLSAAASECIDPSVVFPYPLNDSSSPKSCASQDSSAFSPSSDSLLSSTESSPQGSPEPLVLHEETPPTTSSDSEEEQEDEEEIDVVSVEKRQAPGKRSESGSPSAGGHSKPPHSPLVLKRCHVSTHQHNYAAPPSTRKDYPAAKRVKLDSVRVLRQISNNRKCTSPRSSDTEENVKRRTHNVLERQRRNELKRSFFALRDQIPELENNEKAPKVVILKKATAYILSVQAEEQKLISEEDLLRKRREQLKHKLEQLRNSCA

SMILES | IC50 (c-Myc/Max/Ebox DNA) [nM] | IC50 [1] [nM]
CC(=O)Nc1sc2c(c1-c1nc3cnccc3s1)C[C@@H](C)N[C@@H]2C (single isomer, unassigned) [Compound 110] | < 500 | < 500
CC(=O)Nc1sc2c(c1-c1nc3cnccc3s1)C[C@H](C)N[C@H]2C (single isomer, unassigned) [Compound 111] | < 500 | < 500
CCN1C(C)c2sc(NC(C)=O)c(-c3nc4c(C(F)F)nccc4s3)c2C[C@H]1C (stereo in doubt) [Compound 235, N-((5R,7R)-3-(4-(difluoromethyl)thiazolo[4,5-c]pyridin-2-yl)-6-ethyl-5,7-dimethyl-4,5,6,7-tetrahydrothieno[2,3-c]pyridin-2-yl)acetamide] | < 500 | < 500
CC(=O)Nc1sc2c(c1-c1nc3cnccc3s1)CCNC2 [Compound 100, N-(3-(Thiazolo[4,5-c]pyridin-2-yl)-4,5,6,7-tetrahydrothieno[2,3-c]pyridin-2-yl)acetamide] | < 500 | 500 to 5000
CC(=O)Nc1sc2c(c1-c1nc3cccnc3s1)CCNC2 [Compound 101, N-(3-(thiazolo[5,4-b]pyridin-2-yl)-4,5,6,7-tetrahydrothieno[2,3-c]pyridin-2-yl)acetamide] | 500 to 5000 | < 500
CCC(C)NCCC(=O)Nc1sc2c(c1-c1nc3cnccc3s1)CCNC2 (stereo not drawn) [Compound 103, 3-(sec-butylamino)-N-(3-(thiazolo[4,5-c]pyridin-2-yl)-4,5,6,7-tetrahydrothieno[2,3-c]pyridin-2-yl)propanamide] | < 500 | < 500
CC(=O)Nc1sc2c(c1-c1nc3cnccc3s1)CCN(C(C)CN1CCOCC1)C2 (stereo not drawn) [Compound 105, N-(6-(1-morpholinopropan-2-yl)-3-(thiazolo[4,5-c]pyridin-2-yl)-4,5,6,7-tetrahydrothieno[2,3-c]pyridin-2-yl)acetamide] | 500 to 5000 | 500 to 5000
CC(=O)Nc1sc2c(c1-c1nc3c(C(F)F)nccc3s1)CCNC2 [Compound 106, N-[3-[4-(difluoromethyl)thiazolo[4,5-c]pyridin-2-yl]-4,5,6,7-tetrahydrothieno[2,3-c]pyridin-2-yl]acetamide] | < 500 | < 500
CC(=O)Nc1sc2c(c1-c1nc3cnccc3s1)C(C)CN(C(C)C)C2 (stereo not drawn) [Compound 107, N-(6-isopropyl-4-methyl-3-(thiazolo[4,5-c]pyridin-2-yl)-4,5,6,7-tetrahydrothieno[2,3-c]pyridin-2-yl)acetamide] | 500 to 5000 | 500 to 5000
CC(=O)Nc1sc2c(c1-c1nc3c[n+]([O-])ccc3s1)CCNC2 [Compound 108, 2-(2-acetamido-4,5,6,7-tetrahydrothieno[2,3-c]pyridin-3-yl)thiazolo[4,5-c]pyridine 5-oxide] | 500 to 5000 | 500 to 5000
Cc1ncc(CNCCC(=O)Nc2sc3c(c2-c2nc4cnccc4s2)CCNC3)s1 [Compound 186] | 500 to 5000 | –
N[C@@H]1[C@H]2CN(CCC(=O)Nc3sc4c(c3-c3nc5cnccc5s3)CCNC4)C[C@@H]12 [Compound 187] | < 500 | –
O=C(CCNCC1CCNC1)Nc1sc2c(c1-c1nc3cnccc3s1)CCNC2 (stereo not drawn) [Compound 188] | < 500 | –
O=C(CCNCC1CCOCC1)Nc1sc2c(c1-c1nc3cnccc3s1)CCNC2 [Compound 189] | < 500 | –
Cc1cc(CNCCC(=O)Nc2sc3c(c2-c2nc4cnccc4s2)CCNC3)no1 [Compound 191] | 500 to 5000 | –
C[C@@H](NCCC(=O)Nc1sc2c(c1-c1nc3cnccc3s1)CCNC2)c1cnc2ccccn12 [Compound 192] | < 500 | –
O=C(CCNCCN1CCNCC1)Nc1sc2c(c1-c1nc3cnccc3s1)CCNC2 [Compound 193] | < 500 | –
O=C(CCN1CC(F)(F)C1)Nc1sc2c(c1-c1nc3cnccc3s1)CCNC2 [Compound 194] | 500 to 5000 | –
NC1CC(NCCC(=O)Nc2sc3c(c2-c2nc4cnccc4s2)CCNC3)C1 (stereo not drawn) [Compound 195] | < 500 | –
CC1(C#N)CN(CCC(=O)Nc2sc3c(c2-c2nc4cnccc4s2)CCNC3)C1 [Compound 196] | 500 to 5000 | –
CC(NCCC(=O)Nc1sc2c(c1-c1nc3cnccc3s1)CCNC2)c1nc2ccccc2[nH]1 (stereo not drawn) [Compound 197] | 5000 to 25000 | –
O=C(CCN1CCn2nccc2C1)Nc1sc2c(c1-c1nc3cnccc3s1)CCNC2 [Compound 198] | 500 to 5000 | –

SMILES | IC50 (c-Myc/Max/Ebox DNA) [nM] | IC50 [1] [nM]
Cc1cccc2c1CCN(CCC(=O)Nc1sc3c(c1-c1nc4cnccc4s1)CCNC3)C2 [Compound 199] | 500 to 5000 | –
O=C(CCNCc1[nH]nc2c1CNC2)Nc1sc2c(c1-c1nc3cnccc3s1)CCNC2 [Compound 200] | < 500 | –
CC(NCCC(=O)Nc1sc2c(c1-c1nc3cnccc3s1)CCNC2)c1ncc[nH]1 (stereo not drawn) [Compound 201] | < 500 | –
NC(=O)C1(CNCCC(=O)Nc2sc3c(c2-c2nc4cnccc4s2)CCNC3)CCOCC1 [Compound 202] | < 500 | –
O=C(CCN[C@H]1CC[C@@H](O)C1)Nc1sc2c(c1-c1nc3cnccc3s1)CCNC2 [Compound 204] | < 500 | –
CN(CCC(=O)Nc1sc2c(c1-c1nc3cnccc3s1)CCNC2)Cc1nc2ccccc2s1 [Compound 205] | 5000 to 25000 | –
O=C(CCNC[C@H]1CC2(CCNCC2)CO1)Nc1sc2c(c1-c1nc3cnccc3s1)CCNC2 [Compound 207] | < 500 | –
O=C(CCN1CCC2OCCC2C1)Nc1sc2c(c1-c1nc3cnccc3s1)CCNC2 (stereo not drawn) [Compound 208] | < 500 | –
O=C(CCNCc1noc2c1CNCC2)Nc1sc2c(c1-c1nc3cnccc3s1)CCNC2 [Compound 209] | 500 to 5000 | –
O=C(CCNCC1(O)CC1)Nc1sc2c(c1-c1nc3cnccc3s1)CCNC2 [Compound 210] | < 500 | –
O=C(CCN[C@H]1[C@@H]2CNC[C@@H]21)Nc1sc2c(c1-c1nc3cnccc3s1)CCNC2 [Compound 211] | < 500 | –
O=C(CCNCc1cnc2ccccn12)Nc1sc2c(c1-c1nc3cnccc3s1)CCNC2 [Compound 212] | 5000 to 25000 | –
O=C(CCN1CCC2COCC2C1)Nc1sc2c(c1-c1nc3cnccc3s1)CCNC2 (stereo not drawn) [Compound 213] | < 500 | –
CN(CCC(=O)Nc1sc2c(c1-c1nc3cnccc3s1)CCNC2)Cc1ccc2[nH]ccc2c1 [Compound 214] | < 500 | –
O=C(CCNCc1ncc[nH]1)Nc1sc2c(c1-c1nc3cnccc3s1)CCNC2 [Compound 215] | < 500 | –
O=C(CCNC1CC1)Nc1sc2c(c1-c1nc3cnccc3s1)CCNC2 [Compound 221, 3-(cyclopropylamino)-N-(3-(thiazolo[4,5-c]pyridin-2-yl)-4,5,6,7-tetrahydrothieno[2,3-c]pyridin-2-yl)propanamide] | < 500 | –
O=C(CCNC1CCC1)Nc1sc2c(c1-c1nc3cnccc3s1)CCNC2 [Compound 222, 3-(cyclobutylamino)-N-(3-(thiazolo[4,5-c]pyridin-2-yl)-4,5,6,7-tetrahydrothieno[2,3-c]pyridin-2-yl)propanamide] | < 500 | –
CCN1CCc2c(sc(NC(C)=O)c2-c2nc3cnccc3s2)[C@H]1C [Compound 229, (R)—N-(6-ethyl-7-methyl-3-(thiazolo[4,5-c]pyridin-2-yl)-4,5,6,7-tetrahydrothieno[2,3-c]pyridin-2-yl)acetamide] | 5000 to 25000 | –
CC(=O)Nc1sc2c(c1-c1nc3cnccc3s1)C[C@H](C)N[C@@H]2C [Compound 236] | – | < 500
COCCNCCC(=O)Nc1sc2c(c1-c1nc3cncnc3s1)CCNC2 [Compound 252] | > 25000 | –
CCN1[C@H](C)c2sc(NC(C)=O)c(-c3nc4cnccc4s3)c2C[C@@H]1C [Compound 253] | < 500 | –
CCN1[C@H](C)Cc2c(sc(NC(C)=O)c2-c2nc3cnccc3s2)[C@@H]1C [Compound 254] | > 25000 | –
